Results on one compound are retold here after US20070066608A1, “Novel indole derivatives with an improved antipsychotic activity” (priority 2003, published 2007).

Test [1] addresses T1, Human Dopamine D2L receptor (Homo sapiens, UniProt P14416).
T1 construct: expressed in transfected cells; host or cells: CHO cells
Nature of the test: Radioligand binding experiment for dopamine D2 receptor (hD2), [3H]Spiperone. The settings on record: membranes of D2L receptor-transfected CHO cells, read-out: pIC50 D2 (converted). How it is done:
(§1) The interaction of the compounds of Formula (I) with dopamine-receptors, h5HT-transporter and h5HT1A receptor was assessed in in vitro radioligand binding experiments. In general, a low concentration of a radioligand with a high binding affinity for a particular receptor or transporter is incubated with a sample of a tissue preparation enriched in a particular receptor or transporter or with a preparation of cells expressing cloned human receptors in a buffered medium. During the incubation, the radioligand binds to the receptor or transporter. When equilibrium of binding is reached, the receptor bound radioactivity is separated from the non-bound radioactivity, and the receptor- or transporter-bound activity is counted The interaction of the test compounds with the receptor is assessed in competition binding experiments. Various concentrations of the test compound are added to the incubation mixture containing the receptor- or transporter preparation and the radioligand. The test compound in proportion to its binding affinity and its concentration inhibits binding of the radioligand.
Human Dopamine D2L receptor-transfected CHO cells were collected by scraping into ice-cold Tris-HCl buffer ([…], pH 7.4). The suspension was centrifuged (23 500×g, 10 min, 4° C.) and pellets stored at −70° C. until require. They were then thawed and briefly homogenised using an Ultra-Turrax T25 homogeniser prior to dilution to an appropriate protein concentration optimised for specific and non-specific binding. [^3H]Spiperone (NEN, specific activity˜70 Ci/mmol) was diluted in Tris-HCl assay buffer containing NaCl, CaCl2, MgCl2, KCI (50, 120, 2, 1, and 5 mM respectively, adjusted to pH 7.7 with HCl) at a concentration of 2 nmol/L. Prepared radioligand (50 μl) was then incubated (30 min, 37° C.) with membrane preparations pre-diluted to an appropriate protein concentration (400 μl), and with 50 μl of either the 10% DMSO control, Butaclamol (10^−6 mol/L final concentration), or compound of interest. Membrane-bound activity was detected by filtration through a Packard Filtermate harvester onto Unifilterplates, washing with ice-old Tris-HCl buffer (50 mM; pH8.0; 3×4 ml). Filters were allowed to dry before adding scintillation fluid and counting in a Topcount scintillation counter. % Specific bound and competition binding curves were calculated using S-Plus software (Insightful).

Test [2] addresses T2, human 5HT transporter (Homo sapiens, UniProt P31645).
T2 construct: host or cells: HEK cells
Nature of the test: Binding experiment for 5-HT transporter, [3H]Paroxetine. Conditions: 5HT transporter-transfected HEK cells, [3H]Paroxetine binding; read-out: pIC50 5HT reuptake inhibition (converted). The method, then: as §1
Frozen human 5HT transporter-transfected HEK cells (Perkin Elmer, Brussels) were thawed and briefly homogenised using an Ultra-Turrax T25 homogeniser prior to dilution to an appropriate protein concentration optimised for specific and non-specific binding. [^3H]Paroxetine (NEN, specific activity 20 Ci/mmol) was diluted in Tris-HCl assay buffer containing NaCl and KCl (50 mM 120 mM and 5 mM, respectively; pH 7.4) at a concentration of 5 nmol/L. Prepared radioligand (25 μl) was then incubated (60 min, 25° C.) with membrane preparations (200 μl) and with 25 μl of either 10% DMSO control, Imipramine (10^−6 mol/L final concentration), or compound of interest Membrane-bound activity was detected by filtration through a Packard Filtermate harvester onto Unifilterplates pre-soaked in 0.1% PEI, washing with ice-cold assay buffer (3×4 ml). Filters were dried prior to addition of scintillation fluid and then counting in a Topcount scintillation counter. % Specific bound and competition binding curves were calculated using S-Plus software (Insightful).

Structures are written as SMILES. Where only a bound is given, the exact number is not on record here.

T2 sequence (P31645 whole entry): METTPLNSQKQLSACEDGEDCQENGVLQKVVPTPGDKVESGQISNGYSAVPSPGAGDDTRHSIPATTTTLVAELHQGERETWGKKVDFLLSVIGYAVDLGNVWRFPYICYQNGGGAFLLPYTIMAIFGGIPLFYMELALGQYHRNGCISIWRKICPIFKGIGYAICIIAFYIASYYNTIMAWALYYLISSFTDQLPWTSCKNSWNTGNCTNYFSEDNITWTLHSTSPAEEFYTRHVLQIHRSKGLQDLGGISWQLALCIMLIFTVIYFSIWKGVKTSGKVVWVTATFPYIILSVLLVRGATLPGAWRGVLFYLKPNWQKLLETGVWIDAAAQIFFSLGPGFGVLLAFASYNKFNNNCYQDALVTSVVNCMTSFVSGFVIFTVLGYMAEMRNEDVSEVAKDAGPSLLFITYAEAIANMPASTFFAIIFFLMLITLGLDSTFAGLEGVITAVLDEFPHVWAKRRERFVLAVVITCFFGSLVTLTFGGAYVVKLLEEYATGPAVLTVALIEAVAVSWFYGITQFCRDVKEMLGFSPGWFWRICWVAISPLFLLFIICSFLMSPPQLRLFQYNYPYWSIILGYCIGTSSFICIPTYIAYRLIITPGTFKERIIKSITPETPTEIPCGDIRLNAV
T1 sequence (P14416 whole entry): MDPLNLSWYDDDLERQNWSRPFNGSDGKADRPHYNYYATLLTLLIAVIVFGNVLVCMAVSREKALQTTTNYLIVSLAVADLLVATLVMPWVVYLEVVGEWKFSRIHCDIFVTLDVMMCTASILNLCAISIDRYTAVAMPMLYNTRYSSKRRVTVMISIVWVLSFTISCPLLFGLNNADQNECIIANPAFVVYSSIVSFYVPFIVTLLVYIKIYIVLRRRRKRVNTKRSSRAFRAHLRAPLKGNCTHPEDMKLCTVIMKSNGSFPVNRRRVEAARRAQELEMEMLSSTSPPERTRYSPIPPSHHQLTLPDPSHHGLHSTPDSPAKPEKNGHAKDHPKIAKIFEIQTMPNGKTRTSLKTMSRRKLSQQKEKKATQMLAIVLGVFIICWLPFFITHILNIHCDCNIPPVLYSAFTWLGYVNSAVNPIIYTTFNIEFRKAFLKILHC

With `Fc1ccc2[nH]cc(C3=CCN(CC4Oc5cccnc5O4)CC3)c2c1` (centres unmarked) [Compound 7], the figures for the IC50 in test [1] and in test [2] were 251 nM and over 1000 nM, respectively.
